According to patent US4875925A, “Herbicidal method using diflufenican” (May & Baker Limited, priority 1986, dated 1989):

Key:
Format in all cases: in vivo
[1] = test system: Winter wheat (variety Galahad); experiment: Field crop phytotoxicity, winter wheat (Experiment 3); details: diflufenican 80 g/ha, trifluralin 800 g/ha, or both
Text: (§1) Diflufenican formulated as a 50% w/v aqueous suspension concentrate (Example 2), trifluralin as a 48% w/v emulsifiable concentrate (commercial product and a mixed formulation of diflufenican and trifluralin containing 44% w/v total active ingredient (Example 6) were applied at 0.16 l, 1.67 l and 2 l/ha respectively pre-emergence and just at emergence to winter barley and winter wheat to control Lamium purpureum pre-emergence under field conditions. The treatments were applied to three replicate 30 m^2 plots in a spray volume of 220 l/ha (winter barley) and 206 l/ha (winter wheat) using a motorised small plot sprayer. Visual % phytotoxicity was recorded and the results are given below.

[2] = test system: Winter barley (variety Igri); experiment: Field crop phytotoxicity, winter barley (Experiment 3); details: diflufenican 80 g/ha, trifluralin 800 g/ha, or both
Text: as §1

[3] = test system: Lamium purpureum; experiment: Field control of Lamium purpureum in winter barley and winter wheat (Experiment 3); details: diflufenican 80 g/ha, trifluralin 800 g/ha, or both; for % weed phytotoxicity 72 days after spraying: in winter barley (variety Igri); for % weed phytotoxicity 98 days after spraying: in winter wheat (variety Galahad)
Text: as §1

[4] = test system: Stellaria media; experiment: Greenhouse post-emergence weed control, Stellaria media (Experiment 2); details: 2 leaf stage, 14 days after treatment
Procedure: (§2) Greenhouse experiment showing the nature of biological synergism between pendimethalin and diflufenican applied post-emergence
(§3) A similar experiment to that hereinbefore described in Experiment 1 was carried out with pendimethalin and diflufenican applied to either 4 plants of Stellaria media at the 2 leaf stage or 4 plants of Galium aparine at the 2 whorl (branching initiated) stage. The following 90% herbicidally effective doses (ED90) in grams of diflufenican per hectare were calculated from the mean percentage weed control 14 days after treatment.

[5] = test system: Galium aparine; experiment: Greenhouse post-emergence weed control, Galium aparine (Experiment 2); details: 2 whorl stage, 14 days after treatment
Procedure: as §2, §3

[6] = test system: Alopecurus myosuroides; experiment: Greenhouse pre-emergence weed control, pendimethalin and diflufenican (Experiment 1); details: 22 days after treatment
Procedure: Greenhouse experiment showing the nature of biological synergism between pendimethalin and diflufenican applied pre-emergence
A factorial experiment with 30 treatments was carried out to investigate the interaction of pendimethalin and diflufenican at a wide range of doses i.e. 0, 250, 500, 1000 and 2000 g/ha of pendimethalin plus diflufenican at 0, 31, 62, 125, 250 and 500 g/ha.
All treatments were made in an appropriate volume of water by using appropriate quantities of a 33% w/v emulsifiable concentrate of pendimethalin (commercial product) and diflufenican formulated as an experimental aqueous suspension concentrate (Example 2 hereinafter) containing 50% w/v active ingredient to give the above dose rates in a spray volume of 290 l/ha. All treatments were applied using a laboratory sprayer fitted with a Sparying Systems Teejet SS 8003E operating at 2.94 kgf/cm^2. Treatments were applied to about 20 Alopecurus myosuroides seeds sown 1 cm deep in a loamy soil in 7.5 cm square pots. There were 4 replicate pots per treatment which were arranged in a randomised block design in a glasshouse after treatment. The pots were watered by a combination of overhead irrigation and sub-irrigation. A visual assessment of weed control was made 22 days after treatment as a percentage compared to the untreated pots. […]

Structure (SMILES)	Maximum % crop phytotoxicity [1] [%]	Maximum % crop phytotoxicity [2] [%]	% weed phytotoxicity 72 days after spraying [3] [%]	% weed phytotoxicity 98 days after spraying [3] [%]	ED90 of pendimethalin alone ([4]; pendimethalin alone) [g/ha]	ED90 of pendimethalin alone ([5]; pendimethalin alone)	ED50 of pendimethalin alone ([6]; pendimethalin alone) [g/ha]	ED90 (90% herbicidally effective dose) ([4]; diflufenican alone)	ED90 (90% herbicidally effective dose) ([5]; diflufenican alone)	ED50 (50% herbicidally effective dose) ([6]; diflufenican alone)
CCCN(CCC)c1c([N+](=O)[O-])cc(C(F)(F)F)cc1[N+](=O)[O-] [Trifluralin, 2,6-dinitro-N,N-dipropyl-4-trifluoromethylaniline]	0	0	20	5	–	–	–	–	–	–
CCC(CC)Nc1c([N+](=O)[O-])cc(C)c(C)c1[N+](=O)[O-] [pendimethalin, N-(1-ethylpropyl)-3,4-dimethyl-2,6-dinitroaniline]	–	–	–	–	1653	greater than 2000 g/ha	2071	–	–	–
O=C(Nc1ccc(F)cc1F)c1cccnc1Oc1cccc(C(F)(F)F)c1 [diflufenican, N-(2,4-difluorophenyl)-2-(3-trifluoromethylphenoxy)nicotinamide]	0	5.8	40	80	–	–	–	340 grams of diflufenican per hect	> 500 grams of diflufenican per hect	370 grams of diflufenican per hect
